# Reference: the supplement of paper PMC10307832
# What was measured:
# Assay in all cases: relative viability (nuclei count vs DMSO), 5 days (fraction); higher = more cells survive
# [1] = compound: O=C(CCCCCCC(=O)Nc1ccccc1)NO [Vorinostat] + CS(=O)(=O)N1CCN(Cc2cc3nc(-c4cccc5[nH]ncc45)nc(N4CCOCC4)c3s2)CC1 [Pictilisib] (partner 1 µM)
# In short: (§1)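 Relative viability was taken as the ratio of nuclei in treated wells to nuclei in vehicle wells. Lung cancer cell lines in 1536-well plates received compounds by pin tool one day after seeding, either one drug alone or a fixed anchor-drug dose plus five library-drug doses (not always all listed) in √10 steps. Nuclei were counted on 4× images after 5 days of treatment, and values are medians of duplicate plates.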
# [2] = compound: O=C(CCCCCCC(=O)Nc1ccccc1)NO [Vorinostat] + NC(=O)Nc1cc(-c2cccc(F)c2)sc1C(=O)N[C@H]1CCCNC1 [AZD7762] (partner 0.2 µM)
# In short: as §1
# [3] = compound: O=C(CCCCCCC(=O)Nc1ccccc1)NO [Vorinostat] + CC(C)C[C@H](NC(=O)[C@H](Cc1ccccc1)NC(=O)c1cnccn1)B(O)O [Bortezomib] (partner 0.002 µM)
# In short: as §1
# [4] = compound: O=C(CCCCCCC(=O)Nc1ccccc1)NO [Vorinostat] + CC1(C)CCC(c2ccc(Cl)cc2)=C(CN2CCN(c3ccc(C(=O)NS(=O)(=O)c4ccc(N[C@H](CCN5CCOCC5)CSc5ccccc5)c(S(=O)(=O)C(F)(F)F)c4)cc3)CC2)C1 [Navitoclax] (partner 0.5 µM)
# In short: as §1
# [5] = compound: O=C(CCCCCCC(=O)Nc1ccccc1)NO [Vorinostat] + Nc1ncn([C@H]2C[C@H](O)[C@@H](CO)O2)c(=O)n1 [Decitabine] (partner 2 µM)
# In short: as §1
Cell Line,relative viability ([1]; first compound 0.253 µM),relative viability ([1]; first compound 0.8 µM),relative viability ([1]; first compound 2.53 µM),relative viability ([1]; first compound 8 µM),relative viability ([2]; first compound 0.253 µM),relative viability ([2]; first compound 0.8 µM),relative viability ([2]; first compound 2.53 µM),relative viability ([2]; first compound 8 µM),relative viability ([3]; first compound 0.253 µM),relative viability ([3]; first compound 0.8 µM),relative viability ([3]; first compound 2.53 µM),relative viability ([3]; first compound 8 µM),relative viability ([4]; first compound 0.253 µM),relative viability ([4]; first compound 0.8 µM),relative viability ([4]; first compound 2.53 µM),relative viability ([4]; first compound 8 µM),relative viability ([5]; first compound 0.253 µM),relative viability ([5]; first compound 0.8 µM),relative viability ([5]; first compound 2.53 µM),relative viability ([5]; first compound 8 µM)
CAL-12T,0.48,0.435,0.209,0.149,0.639,0.603,0.337,0.162,1.22,0.984,0.406,0.148,1.16,1.14,0.56,0.101,–,–,–,–
NCI-H2009,1.3,0.747,0.346,0.0949,–,–,–,–,1.32,0.567,0.233,0.126,1.16,1.16,0.722,0.141,0.416,0.354,0.273,0.0862
EMC-BAC-2,0.596,0.531,0.372,0.129,1.02,0.653,0.447,0.174,1.22,1.02,0.405,0.167,1.21,1.13,0.692,0.131,0.958,0.716,0.373,0.168
ABC-1,0.981,0.509,0.168,0.118,0.875,0.587,0.309,0.125,0.297,0.281,0.175,0.194,–,–,–,–,1.33,0.896,0.421,0.158
LK-2,0.48,0.379,0.211,0.132,0.334,0.373,0.126,0.0415,–,–,–,–,0.939,0.585,0.169,0.0764,0.267,0.201,0.089,0.064
LC-2-ad,0.568,0.292,0.0981,0.0042,0.867,0.632,0.226,0.159,1.01,0.579,0.146,0.0588,0.539,0.277,0.102,0.113,0.839,0.69,0.469,0.227
ChaGo-K-1,0.832,0.597,0.345,0.246,0.862,0.867,0.567,0.173,0.954,0.932,0.467,0.282,1.01,0.92,0.582,0.276,0.508,0.516,0.389,0.202
201T,0.741,0.605,0.522,0.313,0.527,0.595,0.495,0.197,1.11,1.1,1.1,0.641,1.24,1.25,1.2,0.472,0.845,0.874,0.679,0.266
NCI-H1563,0.682,0.637,0.68,0.592,–,–,–,–,0.977,0.778,0.579,0.503,–,–,–,–,–,–,–,–
